The source of these data is patent publication US5446066A, “Substituted (arylalkoxybenzyl)aminopropanamide derivatives and process for their preparation” (Farmitalia Carlo Erba S.r.l., priority 1993, dated 1995).

The nature of data set [1]: antagonism of maximal electroshock seizures (MES test). Conditions: read-out: MES-ED50 (effective dose in 50% of treated animals). The data set is classed as in vivo. As to the method:
The compounds of the invention are active on the central nervous system (CNS) and can be used in therapy, for example as antiepileptics, in the treatment of Parkinson's disease and as neuroprotective agents, e.g. in degenerative processes associated with normal ageing or pathological situations, such as brain ischemia; they can also be used as antidepressants, hypnotics and antispastic agents. The activity on the CNS of the compounds of the invention was evaluated on the basis of pharmacological methods, such as, for example, the antagonism of convulsions and lethality induced by intravenous injection of bicuculline in mice (Antiepileptic Drugs, D. M. Woodbury et al. eds., 2nd edition, Raven Press, New York, 1982), or the antagonism of maximal electroshock seizures (MES) (Woodbury, L. A. and Davenport V. D., Arch. Int. Pharmacodyn. Ther. 92; 97-104, 1952).
(§1) For instance, the following Table 1 summarizes the activity and neurotoxicity data obtained in the MES test and in the rotorod test, respectively, for a representative group of compounds according to the present invention, in comparison with the prior art compound 2-[4-(3-phenylpropyl)oxybenzyl]aminopropanamide methanesulfonate (internal code FCE 27023) which is known from WO-90/14334
ED50 means effective dose in 50% of treated animals
On the technique in general: Protection in the maximal electroshock model is a classic sign of anticonvulsant action.

Another data set is described as follows: in vivo. As for the experimental part: The neurotoxicity of the compound and of the reference anticonvulsants was assessed with the rotorod test (Dunan and Miye., J. Am. Pharm. Ass. Sci. Ed., 1957, 46, 208; Kinnard et al., J. Pharmacol. Exp. Ther. 1957, 121, 354; Horowitz. Nature, 1963, 200, 369).
as §1
TD50 means toxic dose in 50% of treated animals
TI means therapeutic index (TD50 /ED50)

Molecules are shown by their SMILES.

`CC(NCc1ccc(OCCCCCc2ccccc2)cc1)C(N)=O` (stereo not drawn) [compound 28244]: the ED50 in data set [1] was 12.5 mg/kg. Besides, in “in vivo”, the TD50 is 1010 mg/kg and the selectivity ratio is 81.

`NC(=O)C(CO)NCc1ccc(OCCCc2ccccc2)cc1` (stereo not drawn) [compound 28245]: the median effective dose (ED50) in data set [1] is 8.6 mg/kg. For the same molecule, in “in vivo”, the TD50 came out at 863 mg/kg and the selectivity ratio was 100.

Regarding `CC(NCc1ccc(OCCCc2ccccc2)cc1)C(N)=O` (stereo not drawn) [compound 27023], the ED50 in data set [1] came to 8.8 mg/kg. In “in vivo”, the TD50 came to 584 mg/kg and the selectivity ratio is 66.

Consider `CC(NCc1ccc(OCCCCc2ccccc2)cc1)C(N)=O` (stereo not drawn) [compound 28243], for which, in data set [1], the ED50 amounted to 12.4 mg/kg. In the data set “in vivo”, the TD50 was 1000 mg/kg and the selectivity ratio turned out to be 82.

As a reminder, the ED50 is the dose that gives a 50% effect, or the effect in half of the subjects.
